What was measured:
[1] = biological target: T1, Gal4 (DBD) RARγ (LBD) hybrid receptor (Homo sapiens, UniProt P13631); assay: Gal4 reporter assay to determine RAR receptor antagonist activity; type: cell-based; settings: HEK 293 cells, antagonist mode against EC80 ATRA, 24 hours, luciferase
T1 construct: Gal4 (DBD) RARγ (LBD), or the Gal4 (DBD) RARβ (LBD) hybrid receptor; expressed in transfected cells; host or cells: HEK 293
T1 sequence (P13631 185-419 limits assumed): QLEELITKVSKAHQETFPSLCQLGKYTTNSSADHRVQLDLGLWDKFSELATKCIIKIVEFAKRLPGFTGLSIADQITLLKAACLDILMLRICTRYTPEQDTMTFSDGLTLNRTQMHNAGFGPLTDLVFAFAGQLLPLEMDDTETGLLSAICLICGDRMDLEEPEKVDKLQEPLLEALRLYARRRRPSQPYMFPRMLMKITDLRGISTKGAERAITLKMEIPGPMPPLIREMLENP
Description: For cell-based assays, human embryonic kidney HEK 293 cells are transfected with receptor and reporter gene plasmids using Fugene. The reporter plasmid containing five Gal4 binding sites and a major late promoter of adenovirus upstream of the luciferase reporter cDNA is transfected together with a plasmid constitutively expressing the Gal4 DNA binding domain (DBD) and the RARα ligand binding domain (LBD), Gal4 (DBD) RARγ (LBD), or the Gal4 (DBD) RARβ (LBD) hybrid receptor using a SV40 promoter. Cells are transfected in poly-d-lysine coated T175 cm flasks in DMEM media with 5% charcoal-stripped Fetal Bovine Serum (FBS). After an overnight incubation, transfected cells are trypsinized, plated in opaque 96 well dishes in DMEM media containing 5% charcoal-stripped FBS, incubated for 4 h, and then exposed to 0.17 nM to 10 μM of test compound in half log dilutions. To determine the antagonist activity of the test compound, EC80 concentrations of agonist for each receptor is also added to the media (15 nM all-trans retinoic acid, ATRA, for RARα and RARγ, 10 nM of ATRA for RARβ). After 24 hours of incubation with compounds, cells are lysed and luciferase activity is determined. Data are fitted to a four parameter-fit logistics to determine IC50 values. The maximum % inhibition is determined versus the cellular response to 0.25% DMSO in the absence of ATRA.

[2] = biological target: T2, human RARγ LBD (Homo sapiens, UniProt P13631); assay: RARγ SRC-2 coactivator recruitment assay (agonist mode); type: biochemical; settings: maximum stimulation relative to fitted top of TTNPB standard curve
T2 sequence (P13631 185-419 limits assumed): T1 sequence (P13631 185-419 limits assumed)
T2 sequence (P19793 227-458 partner limits assumed): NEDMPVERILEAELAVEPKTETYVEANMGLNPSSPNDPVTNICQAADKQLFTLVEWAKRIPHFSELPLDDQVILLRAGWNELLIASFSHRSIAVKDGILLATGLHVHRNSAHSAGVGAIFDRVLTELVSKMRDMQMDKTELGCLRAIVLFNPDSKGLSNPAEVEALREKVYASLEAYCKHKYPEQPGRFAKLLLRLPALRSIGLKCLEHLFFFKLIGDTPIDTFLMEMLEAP
Description: The RARγ SRC-2 Coactivator recruitment assay utilizes the ligand binding domain (LBD) of RARγ with its binding partner RXRα to determine the ability of a compound to enhance the recruitment of the co-activator SRC-2 to the receptor complex. Enhanced recruitment of SRC2 is known to be reflective of an agonist confirmation of the RARγ receptor. The RARγ LBD and SRC2 peptides are covalently linked to AlphaScreen® beads such that enhanced protein-protein interactions can be assessed by energy transfer. Coactivator recruitment assays are performed using AlphaScreen® technology (Perkin Elmer USA) using a 6X-Histidine tagged human RARγ LBD and GST tagged hSRC-2 protein. Unlabelled RXRα LBD is added as a silent heterodimer partner. Nickel chelated donor beads are used to bind RARγ LBD and anti-GST acceptor beads are used to bind SRC-2. Serially diluted test compound is added in concentrations ranging from 10 μM to 500 pM to 20 nM human RARγ receptor, 25 nM RXRα LBD, and 5 nM SRC-2 protein in a buffer containing 25 mM HEPES (pH 7.5), 100 mM NaCl, 0.1% Bovine Serum Albumin (fraction V), and 2 mM DTT containing 16.67 μg/ml of nickel chelated donor beads and 16.67 μg/ml of anti GST acceptor beads in a final volume of 15 μl per well in a white 384 shallow well proxiplate. The RAR agonist, TTNPB, is used as a standard on each plate and is added in concentrations ranging from 100 nM to 5 pM. After incubating for 12 hours at room temperature, read the plate on a Perkin Elmer Envision using standard AlphaScreen® parameters for excitation and fluorescence. Use the data to calculate an EC50 for compounds after fitting the dose-response curves to a 4-parameter logistic fit. Calculate the percent stimulation using the fitted top of the TTNPB standard curve as a comparator.

Kb [1] [nM] | % Stimulation [2] [%] | Structure (SMILES)
23 ± 5.36 | 0.2 | CN1CCN(C(=O)c2ccc(-n3nc(-c4ccc(C(=O)O)cc4)cc3-c3cc(C(C)(C)C)cc(C(C)(C)C)c3)cc2)CC1 [Example 1, 4-[5-(3,5-Di-tert-butylphenyl)-1-[4-(4-methylpiperazine-1-carbonyl)phenyl]pyrazol-3-yl]benzoic Acid]
28.7 | 0.6 | CC(C)(C)c1cc(-c2cc(-c3ccc(C(=O)O)cc3)nn2-c2ccc(C(=O)N3CCOCC3)cc2)cc(C(C)(C)C)n1 [Example 8, 4-[5-(2,6-Di-tert-butyl-4-pyridyl)-1-[4-(morpholine-4-carbonyl)phenyl]pyrazol-3-yl]benzoic acid]
30.2 | 8.4 | CC(C)Sc1cc(-c2cc(-c3ccc(C(=O)O)cc3)nn2-c2ccc(C(=O)N(C)C)cc2)cc(C(C)(C)C)c1 [Example 12, 4-[5-(3-tert-Butyl-5-isopropylsulfanyl-phenyl)-1-[4-(dimethylcarbamoyl)phenyl]pyrazol-3-yl]benzoic Acid]
34.6 | −3 | CC(C)(C)c1cc(-c2cc(-c3ccc(C(=O)O)cc3)nn2-c2ccc(S(C)(=O)=O)cc2)cc(C(C)(C)C)c1 [Example 19, 4-[5-(3,5-Di-tert-butylphenyl)-1-(4-methylsulfonylphenyl)pyrazol-3-yl]benzoic Acid]

Reference: US20140275049A1, “SUBSTITUTED PYRAZOLE ANALOGS As RAR ANTAGONISTS” (Eli Lilly and Company, priority 2011, published 2014)
